A word on the GI50: it is the concentration at which growth is held to half of that of the control. Low readings indicate greater sensitivity of the cells, high ones lower sensitivity of the cells. As usually defined, the inhibition is the change of the read-out against control, counted positive when it falls.

We go through six compounds from EP2987533B1, “7-substituted piperazin-1-yl fluoroquinolone compounds, their use in the treatment of cancer, pharmaceutical compositions and a method for preparation” (priority 2014, dated 2016).

What all share (type): cell-based
One test concerns HCC-2998. As to the kind of experiment: NCI five-dose SRB growth assay. Particulars: Homo sapiens; HCC-2998 (Colon Cancer), 48 h. A general note: The SRB assay estimates cell density from bound dye.
For a further test, the system named is OVCAR-3. The test is described as follows: NCI five-dose SRB growth assay. Particulars: Homo sapiens; OVCAR-3 (Ovarian Cancer), 48 h.
The test system of the next test is NCI-H226. The test is described as follows: NCI five-dose SRB growth assay. Particulars: Homo sapiens; NCI-H226 (Non-Small Cell Lung Cancer), 48 h.
The subject of a further test is HOP-62. As to the kind of experiment: NCI five-dose SRB growth assay. Particulars: Homo sapiens; HOP-62 (Non-Small Cell Lung Cancer), 48 h.
For another test, the system named is A549/ATCC. As to the kind of experiment: NCI five-dose SRB growth assay. Particulars: Homo sapiens; A549/ATCC (Non-Small Cell Lung Cancer), 48 h.
Another test deals with SK-MEL-2. The test is described as follows: NCI five-dose SRB growth assay. Particulars: Homo sapiens; SK-MEL-2 (Melanoma), 48 h.
The next test deals with HS 578T. As to the kind of experiment: NCI one-dose SRB growth assay. Particulars: Homo sapiens; HS 578T (Breast Cancer), 10^-5 M, 48 h; read-out: % Growth Inhibition (GI %).

On to `O=C(O)c1cn(C2CC2)c2cc(N3CCN(S(=O)(=O)c4ccc(Cl)c(Cl)c4)CC3)c(F)cc2c1=O` [Compound 3b], for which the 50% growth inhibitory concentration (GI50) with HCC-2998 was found to be 4.47 µM; in the test with OVCAR-3, 3.9 µM; in the test with NCI-H226 it was 3.58 µM; in the test with HOP-62 it was 4.77 µM; in the test with A549/ATCC it was 3.08 µM; with SK-MEL-2 it was 3.16 µM.
On to `CCn1cc(C(=O)O)c(=O)c2cc(F)c(N3CCN(S(=O)(=O)c4cccc5ccccc45)CC3)cc21` [Compound 7a], for which the GI50 with HCC-2998 amounted to 4.26 µM; in the test on OVCAR-3 it was 3.69 µM; in the test on NCI-H226, 3.71 µM; in the test with HOP-62, 4.6 µM; in the test on A549/ATCC, 2.87 µM; with SK-MEL-2 it was 3.55 µM.
`CCn1cc(C(=O)O)c(=O)c2cc(F)c(N3CCN(S(=O)(=O)c4ccc(Cl)cc4)CC3)cc21` [Compound 1a]: the GI50 in the test with HCC-2998 turned out to be 4.1 µM; with OVCAR-3, 3.51 µM; with NCI-H226, 3.02 µM; in the test on HOP-62, 4.47 µM; in the test on A549/ATCC, 2.81 µM; with SK-MEL-2 it was 2.57 µM. In addition, the inhibition at 10 µM in the test with HS 578T stood at 81.1%.
Regarding `Cc1cc(C)c(S(=O)(=O)N2CCN(c3cc4c(cc3F)c(=O)c(C(=O)O)cn4C3CC3)CC2)c(C)c1` [Compound 6b], the 50% growth inhibitory concentration (GI50) in the test with HCC-2998 is 5.37 µM; in the test on OVCAR-3, 3.17 µM; with NCI-H226, 1.23 µM; in the test on HOP-62 it was 3.65 µM; in the test on A549/ATCC, 2.23 µM.
As to `CCn1cc(C(=O)O)c(=O)c2cc(F)c(N3CCN(S(=O)(=O)c4ccc(Cl)cc4Cl)CC3)cc21` [Compound 2a], the GI50 came out at 2.29 µM in the test with HCC-2998; 2.54 µM with OVCAR-3; 2.6 µM in the test on NCI-H226; 3.08 µM in the test on HOP-62; 2.89 µM in the test with A549/ATCC; 2.75 µM with SK-MEL-2.
In the case of `O=c1[nH]cc(F)c(=O)[nH]1` [Compound 5-FU, 5-fluorouracil, reference compound], the inhibition at 10 µM in the test with HS 578T is above 100%.
